Patent publication US5162328A, “N-[3-[2-(1H-imidazol-1-yl)ethoxy]phenyl]-4-(2-thienyl)-2-pyrimidinamine and pharmacologically acceptable salts” (American Cyanamid Company, priority 1991, dated 1992)
Read-outs that look alike come from different tables or passages of the source.

Test: Pharmacokinetics in dogs (plasma concentration by HPLC)
Format: in vivo, dog (beagle)
Details: dog, plasma, po, 2 mg/kg/day; for concentration at 0.5 h / concentration at 1 h / concentration at 2 h / concentration at 4 h / AUC(0-t) / Cmax / Tmax / half-life / AUC(0-inf): 2 mg/kg/day PO; for AUC(0-inf): read-out: AUCO- (to infinite time)
Protocol: Since dogs are used in toxicology studies of antiasthma compounds, this species is chosen for pharmacokinetic evaluations. Use of the dog permits the pharmacokinetic comparison of 2 or more compounds in the same test animal, an evaluation which could not be conveniently performed in a smaller species. For each test compound, normal dogs are given a dose of 2.0 mg/kg/day for 5 consecutive days. There is a washout period of 1 month between the study of each of the test compounds in the same four dogs. Each test compound is administered as a solution of 5 mg/ml in either 0.05 or 0.1N HCl which is dispensed into a gelatin capsule immediately prior to dosage.
Heparinized blood samples are obtained from each animal on the first, third and fifth day of dosage at 0.5, 1.0, 2.0, 4.0, 7.0, 12.0 and 24.0 hours after the dose. The samples are centrifuged immediately to obtain plasma which is frozen until analyzed.
Analysis of plasma is performed using High Performance Liquid Chromatography (HPLC). The analytical procedure is essentially identical for each compound. The internal standard used for N-[3-[2-(1H-imidazol-1-yl)ethoxy]phenyl]-4-(2-thienyl)2-pyrimidinamine is 2-chloro-11-(4-methyl-1-piperazinyl)dibenz[b,f][1,4]oxazepine succinate, while for 2-methyl-N^4 -[4-(4-pyridinyl)-2-pyrimidinyl]-1,4-benzenediamine dihydrochloride and N-[4-[2-(diethylamino)ethoxy]phenyl]-4-(4-pyridinyl)-2-pyrimidnamine dihydrochloride the internal standard is 7-ethoxy-coumarin. In a typical procedure, a 0.4 ml volume of acetonitrile containing internal standard is added a 0.2 ml volume of serum. The sample is mixed by vortexing and centrifuged. The clear protein free supernatent fluid is decanted into a clean tube and evaporated to dryness. The dry residue is dissolved in 0.2 ml of HPLC mobile phase and 50 ul of this solution injected. Peaks corresponding to the test compound being measured and to the internal standard compound are quantitated by their absorption of ultraviolet light at 280 nm. Each set of analytical samples is accompanied by the analysis of a group of standard dog plasma samples prepared to contain amounts of the compound being measured which encompasses the concentration range of the samples.
Four normal beagle dogs weighing between 9.2 and 10.2 Kg are used in the study.

In the case of Cc1cc(Nc2nccc(-c3ccncc3)n2)ccc1N.Cl.Cl [Compound 2, 2-methyl-N^4-[4-(4-pyridinyl)-2-pyrimidinyl]-1,4-benzenediamine dihydrochloride, reference compound], the concentration at 0.5 h (Dog 1, day 1, 0.5 h) is reported as 512 ng/mL, the concentration at 1 h (Dog 1, day 1, 1 h) is reported as 233 ng/mL and the concentration at 2 h (Dog 1, day 1, 2 h) is reported as 55 ng/mL. The concentration at 4 h (Dog 1, day 1, 4 h) was less than 30 ng/mL, the AUC(0-t) (Dog 1, day 1) was 458 ng·h/mL and the Cmax (Dog 1, day 1) was 512 ng/mL. It also gave a Tmax (Dog 1, day 1) of 30 min, a half-life (Dog 1, day 1) of 28.2 min and an AUC(0-inf) (Dog 1, day 1) of 520 ng·h/mL. The concentration at 0.5 h (Dog 1, day 3, 0.5 h) was 375 ng/mL, the concentration at 1 h (Dog 1, day 3, 1 h) was 295 ng/mL and the concentration at 2 h (Dog 1, day 3, 2 h) was 122 ng/mL. It also gave a concentration at 4 h (Dog 1, day 3, 4 h) of less than 30 ng/mL, an AUC(0-t) (Dog 1, day 3) of 470 ng·h/mL and a Cmax (Dog 1, day 3) of 375 ng/mL. It also gave a Tmax (Dog 1, day 3) of 30 min, a half-life (Dog 1, day 3) of 54 min and an AUC(0-inf) (Dog 1, day 3) of 602 ng·h/mL. The concentration at 0.5 h (Dog 1, day 5, 0.5 h) was 120 ng/mL, the concentration at 1 h (Dog 1, day 5, 1 h) was 277 ng/mL and the concentration at 2 h (Dog 1, day 5, 2 h) was 50 ng/mL. For the same compound, the concentration at 4 h (Dog 1, day 5, 4 h) was less than 30 ng/mL, the AUC(0-t) (Dog 1, day 5) was 293 ng·h/mL and the Cmax (Dog 1, day 5) was 277 ng/mL. It also gave a Tmax (Dog 1, day 5) of 60 min, an AUC(0-inf) (Dog 1, day 5) of 349 ng·h/mL and a concentration at 0.5 h (Dog 2, day 1, 0.5 h) of 438 ng/mL. For the same compound, the concentration at 1 h (Dog 2, day 1, 1 h) was 210 ng/mL, the concentration at 2 h (Dog 2, day 1, 2 h) was 58 ng/mL and the concentration at 4 h (Dog 2, day 1, 4 h) was less than 30 ng/mL. It also gave an AUC(0-t) (Dog 2, day 1) of 406 ng·h/mL, a Cmax (Dog 2, day 1) of 438 ng/mL and a Tmax (Dog 2, day 1) of 30 min. It also gave a half-life (Dog 2, day 1) of 31.2 min, an AUC(0-inf) (Dog 2, day 1) of 471 ng·h/mL and a concentration at 0.5 h (Dog 2, day 3, 0.5 h) of 260 ng/mL. The concentration at 1 h (Dog 2, day 3, 1 h) was 78 ng/mL, the concentration at 2 h (Dog 2, day 3, 2 h) was less than 30 ng/mL and the concentration at 4 h (Dog 2, day 3, 4 h) was less than 30 ng/mL. The AUC(0-t) (Dog 2, day 3) was 293 ng·h/mL, the Cmax (Dog 2, day 3) was 260 ng/mL and the Tmax (Dog 2, day 3) was 30 min. It also gave an AUC(0-inf) (Dog 2, day 3) of 380 ng·h/mL, a concentration at 0.5 h (Dog 2, day 5, 0.5 h) of 350 ng/mL and a concentration at 1 h (Dog 2, day 5, 1 h) of 58 ng/mL. It also gave a concentration at 2 h (Dog 2, day 5, 2 h) of less than 30 ng/mL, a concentration at 4 h (Dog 2, day 5, 4 h) of less than 30 ng/mL and an AUC(0-t) (Dog 2, day 5) of 190 ng·h/mL. It also gave a Cmax (Dog 2, day 5) of 350 ng/mL, a Tmax (Dog 2, day 5) of 30 min and an AUC(0-inf) (Dog 2, day 5) of 255 ng·h/mL. The concentration at 0.5 h (Dog 3, day 1, 0.5 h) was 605 ng/mL, the concentration at 1 h (Dog 3, day 1, 1 h) was 234 ng/mL and the concentration at 2 h (Dog 3, day 1, 2 h) was 184 ng/mL. It also gave a concentration at 4 h (Dog 3, day 1, 4 h) of less than 30 ng/mL, an AUC(0-t) (Dog 3, day 1) of 570 ng·h/mL and a Cmax (Dog 3, day 1) of 605 ng/mL. It also gave a Tmax (Dog 3, day 1) of 30 min, a half-life (Dog 3, day 1) of 58.2 min and an AUC(0-inf) (Dog 3, day 1) of 776 ng·h/mL. For the same compound, the concentration at 0.5 h (Dog 3, day 3, 0.5 h) was 387 ng/mL, the concentration at 1 h (Dog 3, day 3, 1 h) was 284 ng/mL and the concentration at 2 h (Dog 3, day 3, 2 h) was 141 ng/mL. It also gave a concentration at 4 h (Dog 3, day 3, 4 h) of less than 30 ng/mL, an AUC(0-t) (Dog 3, day 3) of 477 ng·h/mL and a Cmax (Dog 3, day 3) of 387 ng/mL. The Tmax (Dog 3, day 3) was 30 min, the half-life (Dog 3, day 3) was 61.2 min and the AUC(0-inf) (Dog 3, day 3) was 635 ng·h/mL. For the same compound, the concentration at 0.5 h (Dog 3, day 5, 0.5 h) was 105 ng/mL, the concentration at 1 h (Dog 3, day 5, 1 h) was 289 ng/mL and the concentration at 2 h (Dog 3, day 5, 2 h) was less than 30 ng/mL. It also gave a concentration at 4 h (Dog 3, day 5, 4 h) of less than 30 ng/mL, an AUC(0-t) (Dog 3, day 5) of 125 ng·h/mL and a Cmax (Dog 3, day 5) of 289 ng/mL. For the same compound, the Tmax (Dog 3, day 5) was 60 min, the AUC(0-inf) (Dog 3, day 5) was 449 ng·h/mL and the concentration at 0.5 h (Dog 4, day 1, 0.5 h) was 482 ng/mL. For the same compound, the concentration at 1 h (Dog 4, day 1, 1 h) was 206 ng/mL, the concentration at 2 h (Dog 4, day 1, 2 h) was less than 30 ng/mL and the concentration at 4 h (Dog 4, day 1, 4 h) was less than 30 ng/mL. For the same compound, the AUC(0-t) (Dog 4, day 1) was 399 ng·h/mL, the Cmax (Dog 4, day 1) was 482 ng/mL and the Tmax (Dog 4, day 1) was 30 min. For the same compound, the AUC(0-inf) (Dog 4, day 1) was 630 ng·h/mL, the concentration at 0.5 h (Dog 4, day 3, 0.5 h) was 283 ng/mL and the concentration at 1 h (Dog 4, day 3, 1 h) was 44 ng/mL. For the same compound, the concentration at 2 h (Dog 4, day 3, 2 h) was less than 30 ng/mL, the concentration at 4 h (Dog 4, day 3, 4 h) was less than 30 ng/mL and the AUC(0-t) (Dog 4, day 3) was 175 ng·h/mL. The Cmax (Dog 4, day 3) was 283 ng/mL, the Tmax (Dog 4, day 3) was 30 min and the AUC(0-inf) (Dog 4, day 3) was 224 ng·h/mL. The concentration at 0.5 h (Dog 4, day 5, 0.5 h) was 420 ng/mL, the concentration at 1 h (Dog 4, day 5, 1 h) was less than 30 ng/mL and the concentration at 2 h (Dog 4, day 5, 2 h) was less than 30 ng/mL. For the same compound, the concentration at 4 h (Dog 4, day 5, 4 h) was less than 30 ng/mL, the AUC(0-t) (Dog 4, day 5) was 105 ng·h/mL and the Cmax (Dog 4, day 5) was 420 ng/mL. It also gave a Tmax (Dog 4, day 5) of 30 min, an AUC(0-inf) (Dog 4, day 5) of 575 ng·h/mL and a concentration at 0.5 h (Mean of 4 dogs, day 1, 0.5 h) of 509 ng/mL. For the same compound, the concentration at 1 h (Mean of 4 dogs, day 1, 1 h) was 221 ng/mL, the concentration at 2 h (Mean of 4 dogs, day 1, 2 h) was 74 ng/mL and the concentration at 4 h (Mean of 4 dogs, day 1, 4 h) was less than 30 ng/mL. It also gave a concentration at 0.5 h (Mean of 4 dogs, day 3, 0.5 h) of 326 ng/mL, a concentration at 1 h (Mean of 4 dogs, day 3, 1 h) of 175 ng/mL and a concentration at 2 h (Mean of 4 dogs, day 3, 2 h) of 66 ng/mL. The concentration at 4 h (Mean of 4 dogs, day 3, 4 h) was less than 30 ng/mL, the concentration at 0.5 h (Mean of 4 dogs, day 5, 0.5 h) was 249 ng/mL and the concentration at 1 h (Mean of 4 dogs, day 5, 1 h) was 156 ng/mL. For the same compound, the concentration at 2 h (Mean of 4 dogs, day 5, 2 h) was less than 30 ng/mL, the concentration at 4 h (Mean of 4 dogs, day 5, 4 h) was less than 30 ng/mL and the AUC(0-t) (Mean, day 1) was 458 ng·h/mL. It also gave a Cmax (Mean, day 1) of 509 ng/mL, a Tmax (Mean, day 1) of 30 min and a half-life (Mean, day 1) of 39 min. For the same compound, the AUC(0-inf) (Mean, day 1) was 599 ng·h/mL, the AUC(0-t) (Mean, day 3) was 354 ng·h/mL and the Cmax (Mean, day 3) was 326 ng/mL. For the same compound, the Tmax (Mean, day 3) was 30 min, the half-life (Mean, day 3) was 57.6 min and the AUC(0-inf) (Mean, day 3) was 460 ng·h/mL. It also gave an AUC(0-t) (Mean, day 5) of 178 ng·h/mL, a Cmax (Mean, day 5) of 334 ng/mL and a Tmax (Mean, day 5) of 45 min. For the same compound, the AUC(0-inf) (Mean, day 5) was 407 ng·h/mL and the k el (derived from mean of half-life values, read-out: elimination constant (converted)) was 0.000248 s⁻¹.
